In patent US9193673B2, “Derivatives of mesalazine, process of their preparation and their use in the treatment of intestinal inflammatory diseases” (SOFAR SPA, priority 2010, dated 2015):
“And” between values parts separate entries of the source, which are not always exact repeats. Equal entries are not always repeated. “Also recorded” adds a separate entry of the source. Where two headings read alike, the source gives them in different places.

Columns and labels:
[1] = Stability in human plasma (hydrolysis by plasma esterases); assay type: in vitro ADME
Experimental: Such study is conducted with the aim of evaluating possible hydrolysis of the compound (IV) by the plasma esterases. The percentage of hydrolysis of the compound (IV) is compared to that of known reference standards.

[2] = system: DSS-induced colitis; assay: DSS-induced colitis model; assay type: in vivo; conditions: DSS 3% C57BL/6 mice
From the text: Experimental colitis models, such as the dextran sodium sulphate (DSS) model, are routinely available in our laboratory (1, 2). […] DSS-induced inflammation of the colon originates in the distal colon, progressing to involve the whole colon and in severe cases the caecum. In addition, the inflammation is confined to the mucosa and is generally not transmural. Furthermore, DSS-induced inflammation is not dependent on the presence of any specific intestinal bacterial flora.
Colon inflammation has been induced in C57BL/6 mice by the administration of DSS in the drinking water at concentrations of 3%, for 5 days.
Different parameters have been measured to test the efficacy of the selected compounds which are: • Clinical evaluation: daily recording weight and clinical activity (anal bleeding, presence of diarrhoea). This parameter has been quantified as percentage of body weight and DAI (Disease Activity Index) relating to anal bleeding and presence of diarrhoea. The lower the DAI is, the lower the anal bleeding is, thus better the therapeutic effect is. • Endoscopic evaluation: mice underwent endoscopy at the end of the treatment. This step is very important as most of the drugs used in human inflammatory bowel disease aim to achieve mucosal healing. • Histological colitis assessment: mice have been sacrificed at the end of the treatment, colons have been removed and histopathological analysis has been performed to assess the extent of tissue damage and recruitment of immune cells.
The therapeutic effect has been evaluated with different experimental procedures (a)-c)) representing either the active phase (a)) or the remission phase (b)-c)) of an intestinal inflammatory disease at different doses: • a) treatment of acute phase at 200 mg/kg/day • b) treatment of remission phase at 50 mg/kg/day • c) treatment of remission phase at 100 mg/kg/day […]

[3] = Stability in simulated gastric and simulated intestinal fluids; assay type: physicochemical
Experimental: Such study is conducted with the aim of evaluating the stability of the compound (IV) at […] in absence of enzymes of the intestinal bacterial flora.
(§1) The stability of the compound (IV) is compared to that of known reference standards.

[4] = In vivo pharmacokinetic in the rat after i.v. and p.o. administration of compound (IV)
[5] = Stability in murine intestinal homogenate; assay type: in vitro ADME, rat
Experimental: Such study is conducted with the aim of evaluating the stability of the compound (IV) in intestinal homogenate.
as §1

[6] = Permeability on the Caco2 cellular line; assay type: in vitro ADME; conditions: human, Caco-2, Caco2
Experimental: (§2) Such study is conducted with the aim of evaluating the capacity of the molecule to permeate the intestinal epithelium and be absorbed thereby evaluating the Papp (apparent permeability coefficient). The Papp of the compound (IV) is compared to that of the known reference standards.

[7] = system: Caco2 cellular line; assay: Permeability on the Caco2 cellular line; assay type: in vitro ADME
Experimental: as §2

[8] = compound (IV) i.v. 5 mg/kg, rat, individual rats
[9] = compound (IV) i.v. 5 mg/kg, rat, individual rats, 5 mg/kg
[10] = compound (IV) oral gavage 50 mg/kg, rat, individual rats, 50 mg/kg

SMILES: CCCC(=O)Oc1ccc(N)cc1C(=O)O.Cl [Compound (IV), 5-amino-2-(butyryloxy)benzoic acid]
- % Residue at 60 min ([1]; Human plasma, 60 min): 32.7 ± 2.6%
- Hydrolysis in plasma ([1]; human plasma): high hydrolysis percentage
- % hydrolysed ([1]; human plasma, after 1 hour of incubation): 67.3%
- Therapeutic efficiency (DAI, endoscopic and histological scores) ([2]; a) acute (active) phase, 200 mg/kg/day orally): comparable therapeutic efficiency
- Therapeutic activity (DAI, endoscopic and histological scores) vs 5-ASA, butyric acid, and their combined administration ([2]; b) remission phase, 50 mg/kg/day orally): better therapeutic activity
- Therapeutic activity (DAI, endoscopic and histological scores) vs 5-ASA, butyric acid, and their combined administration ([2]; c) remission phase, 100 mg/kg/day orally): better therapeutic activity
- % Residue ([3]; SGF, 30 min incubation): 97.3 ± 1.1%
- % Residue ([3]; SGF, 60 min incubation): 99.9 ± 0.9%
- % Residue ([3]; SIF, 30 min incubation): 97.4 ± 4.1%
- % Residue ([3]; SIF, 60 min incubation): 103.2 ± 3.5%
- Stability in SIF and SGF ([3]; both media): stable in both media
- Pharmacokinetic parameters ([4]; administered p.o. and i.v. in rats): good pharmacokinetic parameters
- Metabolism in vivo ([4]; after i.v. and p.o. treatment, rat): metabolised quickly
- Tlast [4, 8]: 1440 min
- Tmax [4, 8]: 2 min
- AUCinf [4, 9]: 18700 ng·min/mL and 22424 ng·min/mL
- AUClast [4, 9]: 17271 ng·min/mL and 21300 ng·min/mL
- Cl [4, 9]: 229.9 mL/min/kg and 191.8 mL/min/kg
- Clast [4, 9]: 1.8 ng/mL and 1.7 ng/mL
- Cmax [4, 9]: 529 ng/mL and 851.2 ng/mL
- MRT [4, 9]: 209 min and 175 min
- T½ [4, 9]: 547.1 min and 451.8 min
- Vdss [4, 9]: 115.3 L/kg and 51.9 L/kg
- Tlast Mean ([4]; compound (IV) i.v. 5 mg/kg, rat, mean): 1440 min
- AUCinf [4, 10]: 3985 ng·min/mL and 5954 ng·min/mL
- AUClast [4, 10]: 3943 ng·min/mL and 5925 ng·min/mL
- Clast [4, 10]: 2.9 ng/mL and 0.8 ng/mL and 1.3 ng/mL
- Cmax [4, 10]: 104 ng/mL and 174 ng/mL
- MRTlast [4, 10]: 48 min and 32 min and 23 min
- Tlast [4, 10]: 240 min (2×) and 120 min
- Tmax [4, 10]: 30 min and 15 min and 5 min
- Tlast Mean ([4]; compound (IV) oral gavage 50 mg/kg, rat, mean): 200 min
- bioavailability ([4]; plasma, oral gavage 50 mg/kg vs i.v. 5 mg/kg, rat, read-out: Mean Fpo 0_inf (%) (mean p.o. bioavailability)): 2.4%
- AUC(0-inf) ([4]; rat, plasma, iv, 5 mg/kg, compound (IV) i.v. 5 mg/kg, rat, individual rats, read-out: AUCinf (converted)): 341 ng·h/mL
- AUC(0-t) ([4]; rat, plasma, iv, 5 mg/kg, compound (IV) i.v. 5 mg/kg, rat, individual rats, read-out: AUClast (converted)): 296 ng·h/mL
- clearance ([4]; rat, plasma, iv, 5 mg/kg, compound (IV) i.v. 5 mg/kg, rat, individual rats, read-out: Cl): 210 mL/min/kg
- concentration at 1440 min ([4]; rat, plasma, iv, 5 mg/kg, compound (IV) i.v. 5 mg/kg, rat, individual rats, read-out: Clast): 2.9 ng/mL
- Cmax ([4]; rat, plasma, iv, 5 mg/kg, compound (IV) i.v. 5 mg/kg, rat, individual rats, read-out: Cmax): 598 ng/mL
- MRT ([4]; rat, plasma, iv, 5 mg/kg, compound (IV) i.v. 5 mg/kg, rat, individual rats, read-out: MRT (converted)): 273 min
- Tmax ([4]; rat, plasma, iv, 5 mg/kg, compound (IV) i.v. 5 mg/kg, rat, individual rats, read-out: Tmax (converted)): 2 min
- half-life ([4]; rat, plasma, iv, 5 mg/kg, compound (IV) i.v. 5 mg/kg, rat, individual rats, read-out: T½): 638 min
- AUC(0-inf) ([4]; rat, plasma, iv, 5 mg/kg, compound (IV) i.v. 5 mg/kg, rat, mean, read-out: AUCinf Mean (converted)): 342 ng·h/mL
- AUC(0-t) ([4]; rat, plasma, iv, 5 mg/kg, compound (IV) i.v. 5 mg/kg, rat, mean, read-out: AUClast Mean (converted)): 313 ng·h/mL
- clearance ([4]; rat, plasma, iv, 5 mg/kg, compound (IV) i.v. 5 mg/kg, rat, mean, read-out: Cl Mean): 211 mL/min/kg
- concentration at 1440 min ([4]; rat, plasma, iv, 5 mg/kg, compound (IV) i.v. 5 mg/kg, rat, mean, read-out: Clast Mean): 2.1 ng/mL
- Cmax ([4]; rat, plasma, iv, 5 mg/kg, compound (IV) i.v. 5 mg/kg, rat, mean, read-out: Cmax Mean): 659 ng/mL
- MRT ([4]; rat, plasma, iv, 5 mg/kg, compound (IV) i.v. 5 mg/kg, rat, mean, read-out: MRT Mean (converted)): 219 min
- Tmax ([4]; rat, plasma, iv, 5 mg/kg, compound (IV) i.v. 5 mg/kg, rat, mean, read-out: Tmax Mean (converted)): 2 min
- half-life ([4]; rat, plasma, iv, 5 mg/kg, compound (IV) i.v. 5 mg/kg, rat, mean, read-out: T½ Mean): 546 min
- Vd ([4]; rat, plasma, iv, 5 mg/kg, compound (IV) i.v. 5 mg/kg, rat, mean, read-out: Vdss Mean): 83.5 L/kg
- concentration at 200 min ([4]; rat, plasma, oral, 50 mg/kg, compound (IV) oral gavage 50 mg/kg, rat, mean, read-out: Clast Mean): 2.8 ng/mL
- concentration at 4 h ([4]; rat, plasma, po, 50 mg/kg, after p.o. administration, rat, 4 hours): 1 ng/mL
- Cmax ([4]; rat, plasma, po, 50 mg/kg, after p.o. administration, rat, read-out: Cmax): 95 ng/mL
- AUC(0-inf) ([4]; rat, plasma, po, 50 mg/kg, compound (IV) oral gavage 50 mg/kg, rat, individual rats, read-out: AUCinf (converted)): 76.5 ng·h/mL
- AUC(0-t) ([4]; rat, plasma, po, 50 mg/kg, compound (IV) oral gavage 50 mg/kg, rat, individual rats, read-out: AUClast (converted)): 67.4 ng·h/mL
- Cmax ([4]; rat, plasma, po, 50 mg/kg, compound (IV) oral gavage 50 mg/kg, rat, individual rats, read-out: Cmax): 89 ng/mL
- AUC(0-inf) ([4]; rat, plasma, po, 50 mg/kg, compound (IV) oral gavage 50 mg/kg, rat, mean, read-out: AUCinf Mean (converted)): 80.7 ng·h/mL
- AUC(0-t) ([4]; rat, plasma, po, 50 mg/kg, compound (IV) oral gavage 50 mg/kg, rat, mean, read-out: AUClast Mean (converted)): 77.3 ng·h/mL
- Cmax ([4]; rat, plasma, po, 50 mg/kg, compound (IV) oral gavage 50 mg/kg, rat, mean, read-out: Cmax Mean): 122 ng/mL
- MRT last ([4]; rat, plasma, po, 50 mg/kg, compound (IV) oral gavage 50 mg/kg, rat, mean, read-out: MRTlast Mean (converted)): 35 min
- Tmax ([4]; rat, plasma, po, 50 mg/kg, compound (IV) oral gavage 50 mg/kg, rat, mean, read-out: Tmax Mean (converted)): 16.7 min
- Stability in the rat intestine ([5]; rat intestinal homogenate): very unstable in the rat intestine; also recorded: quickly metabolised in the rat intestine
- Residue percentage ([5]; rat intestinal homogenate, 25 μM, 30 min): 9.8 ± 1.1%
- Residue percentage ([5]; rat intestinal homogenate, 25 μM, 1 hr): 12.2 ± 1.6%
- Residue percentage ([5]; rat intestinal homogenate, 25 μM, 2 hrs): 10.1 ± 4.4%
- Residue percentage ([5]; rat intestinal homogenate, 25 μM, 4 hrs): 24.5 ± 1.3(*) %
- Residue percentage ([5]; rat intestinal homogenate, 50 μM, 30 min): 5.6 ± 0.6%
- Residue percentage ([5]; rat intestinal homogenate, 50 μM, 1 hr): 4.4 ± 1.1%
- Residue percentage ([5]; rat intestinal homogenate, 50 μM, 2 hrs): 7.3 ± 1.0%
- Residue percentage ([5]; rat intestinal homogenate, 50 μM, 4 hrs): 5.5 ± 1.1%
- Hydrolysis ([5]; tested at two concentrations (25 and 50 μM)): 90-95%
- Papp A→B ([6]; Apical (pH 6.5) → Basolateral (pH 7.4), read-out: Papp A→B (nm/sec) Mean ± SD): 0.59 ± 0.12 ×10⁻⁶ cm/s
- Papp B→A ([6]; B→A, read-out: Papp B→A (nm/sec) Mean ± SD): 0.24 ± 0.03 ×10⁻⁶ cm/s
- A→B Mean mass balance % ([7]; A→B, Caco2): 69%
- B→A Mean mass balance % ([7]; B→A, Caco2): 99%
- BA/AB ratio ([7]; Caco2): 0.41
- Permeability ([7]; Caco2): poor permeability
- BA/AB ratio ([7]; Caco2, listed as compound (IV)): < 1
- Substrate of P-gp (glycoprotein P) ([7]; from BA/AB ratio, Caco2): does not seem to be a substrate of P-gp
- Permeability class ([7]; through the basolateral membrane of the Caco2 cell line): low
